Measured values taken from the supplement of paper PMC10307832.

What was measured:
Assay in all cases: relative viability (nuclei count vs DMSO), 5 days (fraction); higher = more cells survive
Olaparib + Navitoclax = compound: O=C(c1cc(Cc2n[nH]c(=O)c3ccccc23)ccc1F)N1CCN(C(=O)C2CC2)CC1 [Olaparib] + CC1(C)CCC(c2ccc(Cl)cc2)=C(CN2CCN(c3ccc(C(=O)NS(=O)(=O)c4ccc(N[C@H](CCN5CCOCC5)CSc5ccccc5)c(S(=O)(=O)C(F)(F)F)c4)cc3)CC2)C1 [Navitoclax] (partner 0.5 µM)
In short: (§1)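 Each reported value is a median over duplicate plates. It expresses relative viability: treated-well nuclei count divided by vehicle-well nuclei count. Lung cancer cell lines in 1536-well plates were dosed by pin tool a day after seeding, alone with one drug or with a fixed anchor-drug dose plus five library-drug doses (not always all listed) in √10 steps, and nuclei were counted after 5 days.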

Carfilzomib + Olaparib = compound: CC(C)C[C@H](NC(=O)[C@H](CCc1ccccc1)NC(=O)CN1CCOCC1)C(=O)N[C@@H](Cc1ccccc1)C(=O)N[C@@H](CC(C)C)C(=O)[C@@]1(C)CO1 [Carfilzomib] + O=C(c1cc(Cc2n[nH]c(=O)c3ccccc23)ccc1F)N1CCN(C(=O)C2CC2)CC1 [Olaparib] (partner 8 µM)
In short: as §1

Crizotinib + Pemetrexed = compound: C[C@@H](Oc1cc(-c2cnn(C3CCNCC3)c2)cnc1N)c1c(Cl)ccc(F)c1Cl [Crizotinib] + Nc1nc2[nH]cc(CCc3ccc(C(=O)N[C@@H](CCC(=O)O)C(=O)O)cc3)c2c(=O)[nH]1 [Pemetrexed] (partner 0.2 µM)
In short: as §1

Olaparib + Foretinib = compound: O=C(c1cc(Cc2n[nH]c(=O)c3ccccc23)ccc1F)N1CCN(C(=O)C2CC2)CC1 [Olaparib] + COc1cc2c(Oc3ccc(NC(=O)C4(C(=O)Nc5ccc(F)cc5)CC4)cc3F)ccnc2cc1OCCCN1CCOCC1 [Foretinib] (partner 0.25 µM)
In short: as §1

Row | Cell Line | relative viability (Olaparib + Navitoclax; first compound 0.08 µM) | relative viability (Olaparib + Navitoclax; first compound 0.253 µM) | relative viability (Olaparib + Navitoclax; first compound 2.53 µM) | relative viability (Olaparib + Navitoclax; first compound 8 µM) | relative viability (Carfilzomib + Olaparib; first compound 0.001 µM) | relative viability (Carfilzomib + Olaparib; first compound 0.003162 µM) | relative viability (Carfilzomib + Olaparib; first compound 0.01 µM) | relative viability (Carfilzomib + Olaparib; first compound 0.03162 µM) | relative viability (Carfilzomib + Olaparib; first compound 0.1 µM) | relative viability (Crizotinib + Pemetrexed; first compound 0.01 µM) | relative viability (Crizotinib + Pemetrexed; first compound 0.03162 µM) | relative viability (Crizotinib + Pemetrexed; first compound 0.1 µM) | relative viability (Crizotinib + Pemetrexed; first compound 0.3162 µM) | relative viability (Crizotinib + Pemetrexed; first compound 1 µM) | relative viability (Olaparib + Foretinib; first compound 0.08 µM) | relative viability (Olaparib + Foretinib; first compound 0.253 µM) | relative viability (Olaparib + Foretinib; first compound 2.53 µM) | relative viability (Olaparib + Foretinib; first compound 8 µM)
1 | 201T | 1.18 | 1.2 | 1.19 | 1.15 | 0.83 | 0.838 | 0.856 | 0.907 | 0.546 | 0.296 | 0.279 | 0.32 | 0.324 | 0.331 | 1.19 | 1.12 | 1.07 | 1.05
2 | A549 | 1.33 | 0.991 | 0.81 | 0.597 | 0.344 | 0.301 | 0.405 | 0.0248 | 0.0273 |  |  |  |  |  | 0.996 | 0.774 | 0.872 | 0.548
3 | A-427 | 0.946 | 0.93 | 0.526 | 0.554 | 0.782 | 0.827 | 0.749 | 0.271 | 0.147 | 0.967 | 0.954 | 0.957 |  |  | 1.03 | 1.01 | 0.769 | 0.834
4 | ABC-1 |  |  |  |  | 0.768 | 0.846 | 0.348 | 0.324 | 0.26 |  |  |  |  |  | 1.09 | 1.31 | 0.98 | 0.922
5 | BEN | 0.0771 | 0.0609 | 0.0668 | 0.0792 | 1.02 | 1.29 | 1.18 | 1.03 | 0.376 | 0.726 | 0.741 | 0.739 | 0.596 | 0.702 |  | 0.529 | 0.688 | 0.702
6 | CAL-12T | 1.35 | 1.19 | 1.41 | 1.08 | 0.765 | 0.744 | 0.702 | 0.265 | 0.145 | 1.09 | 1.09 | 1.06 | 1.19 | 1.02 | 1.24 | 0.984 | 1.07 | 0.928
7 | COR-L23 | 1.12 | 0.877 | 0.713 | 0.44 | 0.392 | 0.435 | 0.36 | 0.0646 | 0.0712 | 0.19 | 0.189 | 0.201 | 0.207 | 0.199 | 1.08 | 0.842 | 0.797 | 0.567
8 | COR-L 105 | 0.781 | 0.822 | 0.574 | 0.48 | 0.704 | 0.735 | 0.716 | 0.465 | 0.301 | 1.04 | 1.16 | 1 | 1.24 | 1.07 | 1.37 | 0.988 | 0.807 | 0.835
9 | Calu-6 | 0.859 | 0.741 | 0.764 | 0.506 | 0.52 | 0.628 | 0.504 | 0.0906 | 0.0789 |  |  |  |  |  | 0.892 | 0.789 | 0.855 | 0.536
10 | ChaGo-K-1 | 1.44 | 0.989 | 0.953 | 0.848 | 0.447 | 0.409 | 0.392 | 0.172 | 0.142 | 0.253 | 0.249 | 0.253 | 0.241 | 0.261 | 0.872 | 0.868 | 0.763 | 0.608
11 | EBC-1 | 0.46 | 0.403 | 0.44 | 0.318 | 0.721 | 0.63 | 0.191 | 0.0599 | 0.082 |  |  |  |  |  | 0.116 | 0.094 | 0.1 | 0.107
12 | EKVX | 1.1 | 0.876 | 0.97 | 0.944 | 0.854 | 0.908 | 1.02 |  | 0.231 | 0.362 | 0.414 | 0.404 | 0.383 | 0.327 | 1.03 | 1 | 0.294 | 1.01
13 | EMC-BAC-2 | 1.37 | 1.1 | 0.999 | 1.01 | 0.484 | 0.454 | 0.561 | 0.411 | 0.249 | 0.442 | 0.419 | 0.444 |  | 0.448 | 1.05 | 0.998 | 0.953 | 0.655
14 | EPLC-272H | 1.28 | 1.1 | 1.16 | 0.995 | 0.825 | 0.864 | 0.302 | 0.0584 | 0.0607 | 0.298 | 0.355 | 0.397 | 0.37 | 0.402 | 0.764 | 0.582 | 0.729 | 0.64
15 | H3255 | 0.53 | 0.426 | 0.655 | 0.437 | 0.565 | 0.609 | 0.668 | 0.402 | 0.235 | 0.556 | 0.553 | 0.592 | 0.54 | 0.557 | 0.942 | 0.792 | 0.901 | 0.872
16 | HARA | 1.14 | 1.08 | 1.04 | 0.99 | 1.25 | 0.943 | 1.2 | 0.0637 | 0.0917 | 0.222 | 0.242 | 0.257 | 0.183 | 0.236 | 0.97 | 0.807 | 0.951 | 0.695
17 | HCC-15 | 0.751 | 0.657 | 0.719 | 0.643 | 0.73 | 0.771 | 0.75 | 0.551 | 0.166 | 0.234 | 0.222 | 0.233 | 0.209 | 0.213 | 1.23 | 0.95 | 1.07 | 0.868
18 | HCC-44 | 0.913 | 0.941 | 0.934 | 0.933 | 1.07 | 0.975 | 0.985 | 1.03 | 0.637 | 0.603 | 0.648 | 0.689 | 0.593 | 0.665 |  |  |  | 
19 | HCC-78 | 0.977 | 0.738 | 0.819 | 0.572 | 0.733 | 0.881 | 0.844 | 0.552 | 0.233 | 0.88 | 0.865 | 0.889 | 0.855 |  | 0.622 | 0.562 | 0.557 | 0.514
